target: indoleamine 2, 3-dioxygenase (IDO1) (Homo sapiens, UniProt P14902); assay: PBMC IDO1 assay (kynurenine via mass spectrometry); type: cell-based; conditions: not given
Procedure: Compounds of the present invention were tested via high-throughput cellular assays utilizing detection of kynurenine via mass spectrometry and cytotoxicity as end-points. For the mass spectrometry and cytotoxicity assays, human peripheral blood mononuclear cells (PBMC) (PB003F; AllCells®, Alameda, Calif.) were stimulated with human interferon-γ (IFN-γ) (Sigma-Aldrich Corporation, St. Louis, Mo.) and lipopolysaccharide from Salmonella minnesota (LPS) (Invivogen, San Diego, Calif.) to induce the expression of indoleamine 2, 3-dioxygenase (IDO1). Compounds with IDO1 inhibitory properties decreased the amount of kynurenine produced by the cells via the tryptophan catabolic pathway. Cellular toxicity due to the effect of compound treatment was measured using CellTiter-Glo® reagent (CTG) (Promega Corporation, Madison, Wis.), which is based on luminescent detection of ATP, an indicator of metabolically active cells.
In preparation for the assays, test compounds were serially diluted 3-fold in DMSO from a typical top concentration of 5 mM and plated at 0.5 μL in 384-well, polystyrene, clear bottom, tissue culture treated plates with lids (Greiner Bio-One, Kremsmünster, Austria) to generate 11-point dose response curves. Low control wells (0% kynurenine or 100% cytotoxicity) contained either 0.5 μL of DMSO in the presence of unstimulated (-IFN-γ/-LPS) PBMCs for the mass spectrometry assay or 0.5 μL of DMSO in the absence of cells for the cytotoxicity assay, and high control wells (100% kynurenine or 0% cytotoxicity) contained 0.5 μL of DMSO in the presence of stimulated (+IFN-γ/+LPS) PBMCs for both the mass spectrometry and cytotoxicity assays.
Frozen stocks of PBMCs were washed and recovered in RPMI 1640 medium (Thermo Fisher Scientific, Inc., Waltham, Mass.) supplemented with 10% v/v heat-inactivated fetal bovine serum (FBS) (Thermo Fisher Scientific, Inc., Waltham, Mass.), and 1× penicillin-streptomycin antibiotic solution (Thermo Fisher Scientific, Inc., Waltham, Mass.). The cells were diluted to 1,000,000 cells/mL in the supplemented RPMI 1640 medium. 50 μL of either the cell suspension, for the mass spectrometry assay, or medium alone, for the cytotoxicity assay, were added to the low control wells, on the previously prepared 384-well compound plates, resulting in 50,000 cells/well or 0 cells/well respectively. IFN-γ and LPS were added to the remaining cell suspension at final concentrations of 100 ng/ml and 50 ng/ml respectively, and 50 μL of the stimulated cells were added to all remaining wells on the 384-well compound plates. The plates, with lids, were then placed in a 37° C., 5% CO2 humidified incubator for 2 days.
Following incubation, the 384-well plates were removed from the incubator and allowed to equilibrate to room temperature for 30 minutes. For the cytotoxicity assay, CellTiter-Glo® was prepared according to the manufacturer's instructions, and 40 μL were added to each plate well. After a twenty minute incubation at room temperature, luminescence was read on an EnVision® Multilabel Reader (PerkinElmer Inc., Waltham, Mass.). For the mass spectrometry assay, 10 μL of supernatant from each well of the compound-treated plates were added to 40 μL of acetonitrile, containing 10 μM of an internal standard for normalization, in 384-well, polypropylene, V-bottom plates (Greiner Bio-One, Kremsmünster, Austria) to extract the organic analytes. Following centrifugation at 2000 rpm for 10 minutes, 10 μL from each well of the acetonitrile extraction plates were added to 90 μL of sterile, distilled H2O in 384-well, polypropylene, V-bottom plates for analysis of kynurenine and the internal standard on the RapidFire 300 (Agilent Technologies, Santa Clara, Calif.) and 4000 QTRAP MS (SCIEX, Framingham, Mass.). MS data were integrated using Agilent Technologies' RapidFire Integrator software, and data were normalized for analysis as a ratio of kynurenine to the internal standard. […]

Sequence of indoleamine 2, 3-dioxygenase (IDO1) (P14902 whole entry): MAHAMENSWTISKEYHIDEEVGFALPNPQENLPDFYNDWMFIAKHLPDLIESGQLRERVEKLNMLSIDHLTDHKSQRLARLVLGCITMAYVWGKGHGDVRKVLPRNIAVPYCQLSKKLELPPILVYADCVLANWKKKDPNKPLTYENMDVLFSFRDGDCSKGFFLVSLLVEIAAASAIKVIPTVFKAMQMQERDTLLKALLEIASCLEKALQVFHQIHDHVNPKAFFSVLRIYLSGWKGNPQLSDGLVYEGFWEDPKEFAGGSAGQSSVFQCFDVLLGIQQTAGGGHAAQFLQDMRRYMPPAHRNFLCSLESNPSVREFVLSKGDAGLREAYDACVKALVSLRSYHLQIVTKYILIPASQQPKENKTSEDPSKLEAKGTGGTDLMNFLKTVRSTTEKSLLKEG

Row | Compound | IC50 [nM]
1 | Cc1ncccc1OC(=O)N1CCC(C(CC(C)C)NC(=O)c2ccc(Cl)cc2)CC1 (centres unmarked) [Example 6, 2-methylpyridin-3-yl 4-{1-[(4-chlorophenyl)formamido]-3-methylbutyl}piperidine-1-carboxylate] | 1.58
2 | O=C(NC(c1ccncc1)C1CCN(C(=O)Oc2cccnc2F)CC1)c1ccc(F)cc1 (centres unmarked) [Example 72, 2-fluoropyridin-3-yl 4-{[(4-fluorophenyl)formamido](pyridin-4-yl)methyl}piperidine-1-carboxylate] | 158
3 | O=C(NC(c1ccncc1)C1CCN(C(=O)Oc2cccnc2)CC1)c1ccc(F)cc1 (centres unmarked) [Example 87, pyridin-3-yl 4-{[(4-fluorophenyl)formamido](pyridin-4-yl)methyl}piperidine-1-carboxylate] | 631

same assay, conditions: human PBMC stimulated with IFN-γ and LPS, 2 days, kynurenine by mass spectrometry; recorded as pIC50; read-out: PBMC PXC50_ (converted)

Row | IC50 [nM] | Compound
4 | 2.51 | Cc1c(F)cccc1OC(=O)N1CCC(C(CC(C)C)NC(=O)c2ccc(F)cc2)CC1 (centres unmarked) [Example 9, 3-fluoro-2-methylphenyl 4-{1-[(4-fluorophenyl)formamido]-3-methylbutyl}piperidine-1-carboxylate]
5 | 100 | O=C(NC(c1ccncc1)C1CCN(C(=O)Oc2ccccc2)CC1)c1ccc(F)cc1 (centres unmarked) [Example 65, phenyl 4-{[(4-fluorophenyl)formamido](pyridin-4-yl)methyl}piperidine-1-carboxylate]
6 | 1.58 | COc1c(F)cccc1OC(=O)N1CCC([C@@H](CC(C)C)NC(=O)c2ccc(F)cc2)CC1 [Example 106, (R)-3-fluoro-2-methoxyphenyl 4-(1-(4-fluorobenzamido)-3-methylbutyl)piperidine-1-carboxylate]
7 | 316 | CC(C)CC(NC(=O)c1ccc(F)cc1)C1CCN(C(=O)Oc2ccnc3ccccc23)CC1 (centres unmarked) [Example 79, quinolin-4-yl 4-{1-[(4-fluorophenyl)formamido]-3-methylbutyl}piperidine-1-carboxylate]
8 | 6.31 | Cc1c(OC(=O)N2CCC(C(CC(C)C)NC(=O)c3ccc(F)cc3)CC2)ccnc1F (centres unmarked) [Example 33, 2-fluoro-3-methylpyridin-4-yl 4-{1-[(4-fluorophenyl)formamido]-3-methylbutyl}piperidine-1-carboxylate]
9 | 158 | O=C(NC(c1ccccc1)C1CCN(C(=O)Oc2ccccc2)CC1)c1ccc(C(F)(F)F)cc1 (centres unmarked) [Example 73, phenyl 4-[phenyl({[4-(trifluoromethyl)phenyl]formamido})methyl]piperidine-1-carboxylate]
10 | 200 | O=C(NC(c1ccncc1)C1CCN(C(=O)Oc2ccccc2)CC1)c1ccccc1 (centres unmarked) [Example 77, phenyl 4-[(phenylformamido)(pyridin-4-yl)methyl]piperidine-1-carboxylate]
11 | 50.1 | O=C(NC(C1CC1)C1CCN(C(=O)Oc2cncnc2)CC1)c1ccc(Cl)s1 (stereo in doubt) [Example 115, (S)-pyrimidin-5-yl 4-((5-chlorothiophene-2-carboxamido)(cyclopropyl)methyl)piperidine-1-carboxylate]
12 | 39.8 | COc1ccc(C(=O)NC(c2ccccc2)C2CCN(C(=O)Oc3ccccc3)CC2)cc1F (centres unmarked) [Example 57, phenyl 4-{[(3-fluoro-4-methoxyphenyl)formamido](phenyl)methyl}piperidine-1-carboxylate]
13 | 501 | CC(C)CC(NC(=O)c1nnc(Cl)s1)C1CCN(C(=O)Oc2ccccc2)CC1 (centres unmarked) [Example 83, phenyl 4-{1-[(5-chloro-1,3,4-thiadiazol-2-yl)formamido]-3-methylbutyl}piperidine-1-carboxylate]
14 | 2.51 | CC(C)CC(NC(=O)c1ccc(F)cc1)C1CCN(C(=O)Oc2cccc(F)c2Cl)CC1 (centres unmarked) [Example 11, 2-chloro-3-fluorophenyl 4-{1-[(4-fluorophenyl)formamido]-3-methylbutyl}piperidine-1-carboxylate]
15 | 3.98 | CC(C)C[C@@H](NC(=O)c1ccc(Cl)cc1)C1CCN(C(=O)Oc2ccccc2)CC1 [Example 21, phenyl 4-[(1R)-1-[(4-chlorophenyl)formamido]-3-methylbutyl]piperidine-1-carboxylate]
16 | 10 | Cc1ncnc(C)c1OC(=O)N1CCC([C@@H](NC(=O)c2ccc(Cl)s2)C2CC2)CC1 [Example 112, (S)-4,6-dimethylpyrimidin-5-yl 4-((5-chlorothiophene-2-carboxamido)(cyclopropyl)methyl)piperidine-1-carboxylate]
17 | 12.6 | Cc1nccc(OC(=O)N2CCC(C(CC(C)C)NC(=O)c3ccc(F)cc3)CC2)c1F (centres unmarked) [Example 51, 3-fluoro-2-methylpyridin-4-yl 4-{1-[(4-fluorophenyl)formamido]-3-methylbutyl}piperidine-1-carboxylate]
18 | 20 | O=C(NC(c1ccccc1)C1CCN(C(=O)Oc2ccccc2)CC1)c1ccc(Cl)c(F)c1 (centres unmarked) [Example 53, phenyl 4-{[(4-chloro-3-fluorophenyl)formamido](phenyl)methyl}piperidine-1-carboxylate]
19 | 12.6 | CC(C)CC(NC(=O)c1ccc(F)cc1)C1CCN(C(=O)Oc2ccc(F)cc2)CC1 (centres unmarked) [Example 50, 4-fluorophenyl 4-{1-[(4-fluorophenyl)formamido]-3-methylbutyl}piperidine-1-carboxylate]
20 | 1.58 | Cc1ncnc(C)c1OC(=O)N1CCC([C@@H](CC(C)C)NC(=O)c2ccc(Cl)cc2)CC1 [Example 107, (R)-4,6-dimethylpyrimidin-5-yl 4-(1-(4-chlorobenzamido)-3-methylbutyl)piperidine-1-carboxylate]
21 | 10 | CC(C)CC(NC(=O)c1ccc(F)cc1)C1CCN(C(=O)Oc2ccnc(F)c2F)CC1 (centres unmarked) [Example 48, 2,3-difluoropyridin-4-yl 4-{1-[(4-fluorophenyl)formamido]-3-methylbutyl}piperidine-1-carboxylate]
22 | 100 | CC(C)C[C@H](NC(=O)c1ccc(Cl)cc1)C1CCN(C(=O)Oc2ccccc2)CC1 [Example 67, phenyl 4-[(1S)-1-[(4-chlorophenyl)formamido]-3-methylbutyl]piperidine-1-carboxylate]
23 | 126 | Cc1c(F)cccc1OC(=O)N1CCC([C@@H](C)NC(=O)c2ccc(Cl)cc2)CC1 [Example 68, 3-fluoro-2-methylphenyl 4-[(1R)-1-[(4-chlorophenyl)formamido]ethyl]piperidine-1-carboxylate]
24 | 10 | CC(C)CC(NC(=O)c1ccc(F)cc1)C1CCN(C(=O)Oc2ccncc2F)CC1 (centres unmarked) [Example 47, 3-fluoropyridin-4-yl 4-{1-[(4-fluorophenyl)formamido]-3-methylbutyl}piperidine-1-carboxylate]
25 | 3160 | O=C(NC(c1ccncc1)C1CCN(C(=O)OC2CCCCC2)CC1)c1ccc(F)cc1 (centres unmarked) [Example 100, cyclohexyl 4-{[(4-fluorophenyl)formamido](pyridin-4-yl)methyl}piperidine-1-carboxylate]
26 | 631 | COc1cc(OC(=O)N2CCC(C(NC(=O)c3ccc(F)cc3)C3CC3)CC2)ccn1 (centres unmarked) [Example 86, 2-methoxypyridin-4-yl 4-{cyclopropyl[(4-fluorophenyl)formamido]methyl}piperidine-1-carboxylate]
27 | 398 | O=C(NC(C1CC1)C1CCN(C(=O)Oc2ccncc2)CC1)c1ccc(F)cc1 (centres unmarked) [Example 81, pyridin-4-yl 4-{cyclopropyl[(4-fluorophenyl)formamido]methyl}piperidine-1-carboxylate]
28 | 158 | CC(NC(=O)c1ccc(F)cc1)C1CCN(C(=O)Oc2ccccc2)CC1 (centres unmarked) [Example 74, phenyl 4-{1-[(4-fluorophenyl)formamido]ethyl}piperidine-1-carboxylate]
29 | 7.94 | CC(C)CC(NC(=O)c1ccccc1)C1CCN(C(=O)Oc2ccccc2)CC1 (centres unmarked) [Example 39, phenyl 4-[3-methyl-1-(phenylformamido)butyl]piperidine-1-carboxylate]
